Like-named read-outs stand apart in the source and are kept apart here.

The values that follow come from patent US20240390311A1 (priority 2020, published 2024).

One series relates to MHV-1. It is filed as in vivo, A/J mice. The settings on record: for body weight loss / death rate / disease (illness) scores / lung coefficient index: Example 2, in water: GABA 2 mg/mL, homotaurine 0.25 mg/mL, baclofen 0.25 mg/mL, vs untreated controls.
The test system of series [1] is autoreactive Th1 and Th17 cells. The settings on record: cited from earlier work; for disease progression in mouse models of type 1 diabetes, multiple sclerosis, and rheumatoid arthritis: administration of GABA or homotaurine; for CD4+ and CD8+ Treg responses / autoreactive Th1 and Th17 cells: in vivo administration.
For series [2], the system named is SARS-CoV-2. It is filed as in vivo, K18-hACE2 mice. The settings on record: for mice surviving on days 7-8 post-infection: control 20%.
In series [3] the test system is SARS-CoV-2. The following applies: NIH (NCATS) screen; cited from earlier work.
Series [4] relates to SARS-CoV-2. It is filed as in vivo, K18-hACE2 mice.
For series [5] the following is noted: cited from earlier work.
Where [6] appears, read: GABA 2 mg/mL treated vs untreated infected mice.
[7] abbreviates: GABA 2 mg/mL vs untreated infected mice, p<0.001.
Setting [8] is: GABA-treated vs SC group, no statistically significant difference.
[9] abbreviates: hundreds of epilepsy patients, long-term studies.

For `NCCCC(=O)O` [GABA, gamma-aminobutyric acid], in the series on MHV-1, the body weight loss entry is on record as “significantly reduced”, the death rate result is given as “significantly reduced” and the “disease (illness) scores” value is given as “significantly reduced”. In the series on MHV-1 (GABA 20 mg/ml immediately after inoculation, day 7 post-infection, scale 0-5), the “highest average illness score” value turned out to be 1.6. Besides, the “body weight at 14 days post-infection, of starting weight” value with MHV-1 (GABA 20 mg/ml starting 3 days post-infection) is recorded as 90%. In addition, the “maximum mean illness score” value in the series with MHV-1 (GABA 20 mg/ml starting 3 days post-infection, scale 0-5) came to 2.5. For the same molecule, the mice that died in the series on MHV-1 (GABA 20 mg/ml starting 3 days post-infection, up to 14 days (death on day 9)) is reported as 1/9. Also, the “average body weight below starting weight 14 days post-infection” value with MHV-1 (GABA 20 mg/ml starting immediately after MHV-1 inoculation) turned out to be 7%. In addition, the mice that died entry with MHV-1 (GABA 20 mg/ml starting immediately after MHV-1 inoculation, up to 14 days, control 3/9 survived) is recorded as “none”. In series [1], the “disease progression in mouse models of type 1 diabetes, multiple sclerosis, and rheumatoid arthritis” value is “inhibits”; the “CD4+ and CD8+ Treg responses” value is on record as “promoting”; the “autoreactive Th1 and Th17 cells” value is on record as “inhibits”. In addition, the “mice survived at end of study on day 7” value with SARS-CoV-2 [2] (Example 4, GABA 2 mg/mL started 2 days post-infection, control 22%, p=0.004) was 88%. The “longitudinal mean illness scores” value in the series on SARS-CoV-2 [2] (Example 4, GABA 2 mg/mL started 2 days post-infection, overall p=0.002) is given as “reduced”. Moreover, in the series on SARS-CoV-2 [2] (Trial 1, GABA 0.2 mg/mL in water, control 3/5 died), the “mice that died during the 7-day observation period” value is “none”. In addition, the “mice surviving on days 7-8 post-infection” value with SARS-CoV-2 [2] (Trial 2, GABA 0.2 mg/mL, p=0.004) worked out at 80%. The “mice surviving on days 7-8 post-infection” value in the series on SARS-CoV-2 [2] (Trial 2, GABA 2 mg/mL, p=0.018) came to 80%. Moreover, in the series with SARS-CoV-2 [2] (Trial 2, GABA 0.2 or 2.0 mg/mL in water from infection, vs control), the illness scores entry is recorded as “significantly reduced”. In the series on SARS-CoV-2 [3], the “SARS-CoV-2 interaction with its cellular receptor” value was “did not interfere” and the SARS-CoV-2 replication entry is recorded as “did not interfere”. In the series on SARS-CoV-2 [4] (setting [6]), the “serum GM-CSF level” value is on record as “not found to have a statistically significant difference”, the “serum IFNα level” value is “not found to have a statistically significant difference”, the “serum IFNβ level” value is listed as “not found to have a statistically significant difference” and the “serum IFNγ level” value is “not found to have a statistically significant difference”. Further, in the series with SARS-CoV-2 [4] (setting [6]), the “serum IL-12 level” value is on record as “not found to have a statistically significant difference”. For the same molecule, in the series on SARS-CoV-2 [4] (setting [7]), the “serum IL-10 levels” value is on record as “further significantly elevated” and the “serum IP-10 (CXCL10) levels” value is reported as “significantly reduced”. Further, the “TNFα production (serum)” value in the series on SARS-CoV-2 [4] (GABA 2 mg/mL vs untreated infected, p<0.001) is “significantly mitigated”. For the same molecule, the “mice with detectable IFNβ levels” value in the series with SARS-CoV-2 [4] (GABA 2 mg/mL, 1/10 in healthy and infected control groups) was 3/10. Besides, the “mice with high levels of IFNγ” value in the series on SARS-CoV-2 [4] (GABA 2 mg/mL, 3/10 in untreated infected group) is given as 1/10. In addition, the “median and mean levels of IFNα” value in the series with SARS-CoV-2 [4] (GABA treated vs. untreated infected group, p=0.14) is “slightly elevated”. Besides, in the series with SARS-CoV-2 [4] (setting [8]), the “serum IL-1β level” value was “slightly reduced” and the “serum IL-6 level” value is listed as “slightly reduced”. Besides, in the series with SARS-CoV-2 [4] (GABA-treated vs. untreated infected mice, p=0.25), the “median and mean IFNγ levels” value is on record as “reduced”. The “serum CCL2 levels” value in the series on SARS-CoV-2 [4] (GABA-treated vs. untreated-infected mice, p=0.07) is “tending to be lower”. In the series with SARS-CoV-2 [4] (among HC, SC and GABA groups), the “serum CCL5 level” value was “No statistically significant difference” and the “serum CXCL1 level” value is reported as “No statistically significant difference”. For the same molecule, in series [5] (setting [9]), the “ability to reduce seizures” value was “no clinical benefit” and the adverse effects entry was “no adverse effects”. The safety result in series [5] (phase Ib GABA oral dosing study) is “safe”.
In the case of `NCCCS(=O)(=O)O` [homotaurine], in the series on MHV-1, the body weight loss result is listed as “significantly reduced”, the death rate entry is listed as “significantly reduced”, the “disease (illness) scores” value was “significantly reduced” and the lung coefficient index entry is “significantly reduced”. Also, in series [1], the “disease progression in mouse models of type 1 diabetes, multiple sclerosis, and rheumatoid arthritis” value is reported as “inhibits”; the “CD4+ and CD8+ Treg responses” value is reported as “promoting”; the “autoreactive Th1 and Th17 cells” value is “inhibits”.
Turning to `NCC(CC(=O)O)c1ccc(Cl)cc1` (stereo not drawn) [Baclofen, baclofen], in the series with MHV-1, the body weight loss result is on record as “did not significantly decrease”, the death rate result is given as “did not significantly decrease”, the “disease (illness) scores” value is “slight but significant ability to reduce” and the lung coefficient index result is “did not significantly decrease”.
